# Laboratory results reported in patent US8946270B2, “Amido-pyridyl ether compounds and compositions and their use against parasites” (Merial Limited, priority 2011, dated 2015).
# Where two headings read alike, the source gives them in different places.
# Columns and labels:
# [1] = tested on: Rhipicephalus sanguineus (Brown Dog Tick); assay: whole plant or invertebrate; conditions: for mortality at 200 ppm: Rhipicephalus sanguineus, read-out: Contact SP Rhicicep PCT Mortality (%); for Contact SP Rhicicep PCT Mortality (%): 200 ppm
# From the text: A solution of the test compound was used to coat the inner wall of glass vials and to treat two filter papers. Once dried, one filter paper was placed in the cap of the vial and the other in the bottom of the vial. Each treated vial was infested with 10 adult Rhipicephalus sanguineus (Brown Dog Tick). […]
# [2] = tested on: Haemonchus contortus larvae; assay: Activity against H. contortus, larval development L1 to L3 (LDA); conditions: 5 ppm; 4 days
# Procedure: Twenty L1 Haemonchus contortus larvae were added to wells of a microtitre plate containing a nutrient medium and the test compound in DMSO. The microtitre plate was then held at 27° C. where the L1 larvae were allowed to develop. […] Larvae exposed to DMSO and no test compound served as controls
# Haematobia irritans = assay: whole plant or invertebrate; conditions: 5 μg/cm^2; for mortality at 5 µg/cm2: Haematobia irritans, read-out: Contact SP Horn Fly PCT Mortality (%)
# Procedure: (§1) A solution of the test compound was used to treat a filter paper contained within a Petri dish and the filter paper was allowed to evaporate to dryness. A small piece of absorbent cotton moistened with 10% sucrose and ten adult flies (Haematobia irritans or Stomoxys calcitrans) were added to each dish. Dishes were capped and held at room temperature. Assessments were performed at 4 and 24 hours after infestation in comparison with untreated controls.
# Stomoxys calcitrans = assay: whole plant or invertebrate; conditions: 5 μg/cm^2; for mortality at 5 µg/cm2: Stomoxys calcitrans, read-out: Contact SP Stable Fly PCT Mortality
# Procedure: as §1
# Ctenocephalides felis = assay: whole plant or invertebrate; conditions: 72 hr; for Assay: Minilnge Organism: C. felis Test Parameter: PCT Mortal: Dose: 200 ppm; for mortality at 200 ppm: Ctenocephalides felis, read-out: Assay: Minilnge Organism: C. felis Test Parameter: PCT Mortal
Compound,mortality at 200 ppm ([1]; timepoint 4 hrs),mortality at 200 ppm ([1]; timepoint 24 hrs),mortality at 5 µg/cm2 (Haematobia irritans; timepoint 4 hrs),mortality at 5 µg/cm2 (Haematobia irritans; timepoint 24 hrs),Contact SP Horn Fly PCT Mortality (%) (Haematobia irritans; timepoint 4 hrs),Contact SP Horn Fly PCT Mortality (%) (Haematobia irritans; timepoint 24 hrs),other results
CC(C)CNC(=O)c1ccc(CCOc2ccc(C(F)(F)F)cc2)cn1 [Compound 206],100%,100%,,,,,LDA SP H. cont. PCT Mot M [2]: 100%
CC(C)CNC(=O)c1ccc(OCc2ccc(OC(F)(F)F)cc2)cn1 [Compound 136],,,,,,,LDA SP H. cont. PCT Mot M [2]: 89.2655%
CC(C)CNC(=O)c1ccc(COc2cccc(OC(F)(F)F)c2)cn1 [Compound 54],0%,100%,100%,100%,,,
CC(C)CNC(=O)c1ccc(CCOc2cccc(OC(F)(F)F)c2)cn1 [Compound 12],,,80%,100%,,,mortality at 5 µg/cm2 (Stomoxys calcitrans; 4 hrs): 50%; mortality at 5 µg/cm2 (Stomoxys calcitrans; 24 hrs): 90%
COC(CNC(=O)c1ccc(COc2cccc(-c3ccccc3)c2)cn1)OC [Compound 185],,,,,,,Assay: Minilnge Organism: C. felis Test Parameter: PCT Mortal (Ctenocephalides felis): 90%
CCc1cccc(OCc2ccc(C(=O)NCC(C)C)nc2)c1 [Compound 77],100%,100%,100%,100%,,,mortality at 5 µg/cm2 (Stomoxys calcitrans; 4 hrs): 60%; mortality at 5 µg/cm2 (Stomoxys calcitrans; 24 hrs): 80%
C=C(C)CNC(=O)c1ccc(COc2cccc(-c3ccccc3)c2)cn1 [Compound 197],,,,,,,Assay: Minilnge Organism: C. felis Test Parameter: PCT Mortal (Ctenocephalides felis): 90%
O=C(NCC1CC1)c1ccc(COc2cccc(-c3cccc(F)c3)c2)cn1 [Compound 176],,,,,,,Contact SP Rhicicep PCT Mortality (%) ([1]; timepoint 4 hrs): 90%; Contact SP Rhicicep PCT Mortality (%) ([1]; timepoint 24 hrs): 100%; Assay: Minilnge Organism: C. felis Test Parameter: PCT Mortal (Ctenocephalides felis): 70%
CC(C)CNC(=O)c1ccc(CCOc2ccc(F)c(F)c2)cn1 [Compound 224],,,,,,,LDA SP H. cont. PCT Mot M [2]: 98%
CN(C)CC(C)(C)CNC(=O)c1ccc(COc2cc(F)cc(Br)c2)cn1 [Compound 124],70%,70%,100%,100%,,,
CC(C)CNC(=O)c1ccc(COc2cccc(-c3ccccc3)c2)cn1 [Compound 198],,,,,,,Contact SP Rhicicep PCT Mortality (%) ([1]; timepoint 4 hrs): 100%; Contact SP Rhicicep PCT Mortality (%) ([1]; timepoint 24 hrs): 100%; Assay: Minilnge Organism: C. felis Test Parameter: PCT Mortal (Ctenocephalides felis): 90%
C=C(C)CNC(=O)c1ccc(COc2cccc(-c3cccc(F)c3)c2)cn1 [Compound 179],,,,,,,Contact SP Rhicicep PCT Mortality (%) ([1]; timepoint 4 hrs): 100%; Contact SP Rhicicep PCT Mortality (%) ([1]; timepoint 24 hrs): 100%; Assay: Minilnge Organism: C. felis Test Parameter: PCT Mortal (Ctenocephalides felis): 70%
CCC(C)CNC(=O)c1ccc(CCOc2ccc(C(F)(F)F)cc2)cn1 (centres unmarked) [Compound 219],80%,90%,,,,,LDA SP H. cont. PCT Mot M [2]: 90%
O=C(NCC1CC1)c1ccc(COc2ccc(OC(F)(F)F)cc2)cn1 [Compound 33],100%,100%,100%,100%,,,mortality at 5 µg/cm2 (Stomoxys calcitrans; 4 hrs): 80%; mortality at 5 µg/cm2 (Stomoxys calcitrans; 24 hrs): 80%
O=C(NCC1CC1)c1ccc(CCOc2ccc(C(F)(F)F)cc2)cn1 [Compound 207],,,,,80%,80%,LDA SP H. cont. PCT Mot M [2]: 100%
O=C(NCC1CC1)c1ccc(CCOc2cccc(C(F)(F)F)c2)cn1 [Compound 208],,,,,100%,100%,
CC(C)CNC(=O)c1ccc(C(C)COc2cccc(OC(F)(F)F)c2)cn1 (racemic) [Compound 251],,,,,80%,100%,
CCC(C)CNC(=O)c1ccc(COc2ccc(OC(F)(F)F)cc2)cn1 (centres unmarked) [Compound 41],,,60%,60%,,,
CCCNC(=O)c1ccc(COc2cccc(-c3cccc(F)c3)c2)cn1 [Compound 177],,,,,,,Contact SP Rhicicep PCT Mortality (%) ([1]; timepoint 4 hrs): 80%; Contact SP Rhicicep PCT Mortality (%) ([1]; timepoint 24 hrs): 90%; Assay: Minilnge Organism: C. felis Test Parameter: PCT Mortal (Ctenocephalides felis): 40%
CC(C)CNC(=O)c1ccc(CCOc2ccc(Cl)c(OC(F)(F)F)c2)cn1 [Compound 223],,,,,,,Contact SP Rhicicep PCT Mortality (%) ([1]; timepoint 4 hrs): 0%; Contact SP Rhicicep PCT Mortality (%) ([1]; timepoint 24 hrs): 0%; LDA SP H. cont. PCT Mot M [2]: 91%
CC(C)CNC(=O)c1ccc(COc2cccc(C(F)(F)F)c2)cn1 [Compound 5],50%,80%,100%,100%,,,mortality at 5 µg/cm2 (Stomoxys calcitrans; 4 hrs): 70%; mortality at 5 µg/cm2 (Stomoxys calcitrans; 24 hrs): 90%
COC(CNC(=O)c1ccc(COc2cccc(OC(F)(F)F)c2)cn1)OC [Compound 44],100%,100%,80%,80%,,,

Compound,mortality at 200 ppm ([1]; timepoint 4 hrs),mortality at 200 ppm ([1]; timepoint 24 hrs),mortality at 5 µg/cm2 (Haematobia irritans; timepoint 4 hrs),mortality at 5 µg/cm2 (Haematobia irritans; timepoint 24 hrs),Contact SP Horn Fly PCT Mortality (%) (Haematobia irritans; timepoint 4 hrs),Contact SP Horn Fly PCT Mortality (%) (Haematobia irritans; timepoint 24 hrs),other results
C=C(C)CNC(=O)c1ccc(COc2cccc(CC)c2)cn1 [Compound 76],80%,100%,0%,0%,,,
CCCCNC(=O)c1ccc(COc2cc(F)cc(Br)c2)cn1 [Compound 127],90%,100%,70%,70%,,,
CSCCNC(=O)c1ccc(COc2cccc(OC(F)(F)F)c2)cn1 [Compound 49],,,60%,0%,,,
O=C(NCC1CC1)c1ccc(COc2cc(F)cc(Br)c2)cn1 [Compound 119],,,,,80%,100%,Contact SP Stable Fly PCT Mortality (Stomoxys calcitrans; 4 hrs): 60%; Contact SP Stable Fly PCT Mortality (Stomoxys calcitrans; 24 hrs): 70%
CCc1cccc(OCc2ccc(C(=O)NCC(OC)OC)nc2)c1 [Compound 65],80%,100%,,,,,mortality at 5 µg/cm2 (Stomoxys calcitrans; 4 hrs): 50%; mortality at 5 µg/cm2 (Stomoxys calcitrans; 24 hrs): 60%
CC(C)CNC(=O)c1ccc(CCOc2ccc(OC(F)(F)F)cc2)cn1 [Compound 13],,,60%,70%,,,LDA SP H. cont. PCT Mot M [2]: 95%
Cc1cccc(OCc2ccc(C(=O)NCC(C)C)nc2)c1 [Compound 63],,,,,100%,100%,Contact SP Rhicicep PCT Mortality (%) ([1]; timepoint 4 hrs): 100%; Contact SP Rhicicep PCT Mortality (%) ([1]; timepoint 24 hrs): 100%; Contact SP Stable Fly PCT Mortality (Stomoxys calcitrans; 4 hrs): 80%; Contact SP Stable Fly PCT Mortality (Stomoxys calcitrans; 24 hrs): 80%
O=C(NCCc1ccccn1)c1ccc(COc2cc(F)cc(Br)c2)cn1 [Compound 121],,,,,80%,80%,
COC(CNC(=O)c1ccc(COc2cc(F)cc(Br)c2)cn1)OC [Compound 107],0%,70%,0%,0%,,,mortality at 200 ppm (Ctenocephalides felis): 90%
N#CCCNC(=O)c1ccc(COc2cc(F)cc(Br)c2)cn1 [Compound 108],70%,70%,100%,100%,,,mortality at 5 µg/cm2 (Stomoxys calcitrans; 4 hrs): 0%; mortality at 5 µg/cm2 (Stomoxys calcitrans; 24 hrs): 0%
CC(C)CNC(=O)c1ccc(COc2ccc(OC(F)(F)F)cc2)cn1 [Compound 10],0%,100%,90%,90%,,,
O=C(NCC1CC1)c1ccc(COc2cccc(OC(F)(F)F)c2)cn1 [Compound 52],,,,,80%,80%,Contact SP Stable Fly PCT Mortality (Stomoxys calcitrans; 4 hrs): 60%; Contact SP Stable Fly PCT Mortality (Stomoxys calcitrans; 24 hrs): 80%
CCC(C)CNC(=O)c1ccc(COc2cccc(OC(F)(F)F)c2)cn1 (centres unmarked) [Compound 57],,,,,70%,80%,
CCCNC(=O)c1ccc(COc2ccc(OC(F)(F)F)cc2)cn1 [Compound 34],,,,,60%,80%,
O=C(NCC1CC1)c1ccc(CCOc2cccc(OC(F)(F)F)c2)cn1 [Compound 243],100%,100%,,,,,mortality at 200 ppm (Ctenocephalides felis): 80%
CCCCNC(=O)c1ccc(COc2ccc(OC(F)(F)F)cc2)cn1 [Compound 40],,,,,0%,40%,
CC(C)NC(=O)c1ccc(COc2cccc(OC(F)(F)F)c2)cn1 [Compound 50],,,,,70%,80%,
O=C(NCC1CCOCC1)c1ccc(COc2ccc(OC(F)(F)F)cc2)cn1 [Compound 24],0%,0%,50%,70%,,,mortality at 200 ppm (Ctenocephalides felis): 0%
CCc1cccc(OCc2ccc(C(=O)NCC3CC3)nc2)c1 [Compound 73],,,,,100%,100%,
O=C(NC1CCC1)c1ccc(COc2cc(F)cc(Br)c2)cn1 [Compound 122],,,,,0%,0%,Contact SP Rhicicep PCT Mortality (%) ([1]; timepoint 4 hrs): 0%; Contact SP Rhicicep PCT Mortality (%) ([1]; timepoint 24 hrs): 80%
CC(C)CNC(=O)c1ccc(COCc2cccc(OC(F)(F)F)c2)cn1 [Compound 132],,,,,100%,100%,
